For data set [1], the system named is human prostate PC-3 cancer cells. As to the kind of experiment: Resazurin-based metabolic cytotoxicity assay, PC-3. The data set is classed as cell-based. The conditions noted are these: 24 hours exposure, then 24 hours in DMEM; 17-DMAPG equivalents. The procedure: (§1) For cell culture, cells were maintained at 37° C., 5% CO2 and 95% humidity in Dulbecco's modified Eagle's medium (DMEM) supplemented with 10% (v/v) heat inactivated fetal bovine serum (FBS), 2 mM L-glutamine and 100 unit/mL penicillin and 1000 μg/mL streptomycin. Cytotoxicity of 17-DMAPG loaded lipogels was assessed in human prostate PC-3 cancer cells and breast carcinoma MDA-MB-231 cells by resazurin-based metabolic assay. Briefly, cells were seeded in 96-well plates with 5,000 cells per well and allowed to adhere for 24 hours prior to the assay. Cells were exposed to various doses (0-35 μM on 17-DMAPG basis) of free 17-DMAPG, lipogel loaded 17-DMAPG and lipogel alone for 24 hours at 37° C., followed by washing with PBS, and maintaining in DMEM medium with 10% FBS for additional 24 hours. 10 μl of resazurin PBS solution (440 μM) was added into each well and incubated for a further 2 hours. The fluorescence was measured with a microplate reader (SpectraMax Gemini XS, Molecular Devices) with excitation at 560 nm and emission at 590 nm using wells without cells as blanks. […] The reading taken from the wells with cells cultured with control medium was used as 100% viability. The cell viability was calculated as Esample/Econtrol×100%. Based on the results of the test, the IC50 values were calculated on GraphPad Prism 5 Software (San Diego Calif., USA).
Background: The colour change of resazurin is a common sign of viable cells or microbes.

Data set [2] has as its system breast carcinoma MDA-MB-231 cells. As to the kind of experiment: Resazurin-based metabolic cytotoxicity assay, MDA-MB-231. The conditions noted are these: 24 hours exposure, then 24 hours in DMEM; 17-DMAPG equivalents. The data set is classed as cell-based, human. The procedure:
as §1

Data set [3] in a line: Heat stability of 17-DMAPG during incubation, HPLC analysis. It is filed as physicochemical. The settings on record: extended incubation at 65° C.
A further data set is described as follows: pKa of active agents. The data set is classed as physicochemical. The conditions noted are these: pH 6.5.

As to `CO[C@H]1/C=C\C=C(/C)C(=O)NC2=CC(=O)C(NCCCN(C)C)=C(C[C@@H](C)C[C@H](OC)[C@H](O)[C@@H](C)/C=C(\C)[C@@H]1OC(N)=O)C2=O` [17-DMAPG, 17-(dimethylaminopropylamino)-17-demethoxygeldanamycin], the IC50 (usually the concentration at which inhibition is half-maximal) came out at 807 nM in data set [1] and 152 nM in data set [2]. Besides, the “heat stability (in words)” value in data set [3] is given as “heat instability”. For the same compound, the “fraction protonated and positively charged” value in “pKa of active agents” is on record as “approximately 99%”.
